Data from US10640463B2, “Chlorhexidine crystal forms and uses thereof in medicine” (Queen Mary University of London, priority 2016, dated 2020).

How the values were obtained:
[1] = Chlorhexidine release from HEMA-UDMA resin discs, with or without ultrasound; format: physicochemical
Description: HEMA-UDMA resin was prepared by mixing 64% urethane dimethacrylate (UDMA) (Esschem UK, Lot: 591-22) and 36% hydroxyethyl methacrylate (HEMA) (Aldrich, 128635, Lot: STBC7495V), 0.08% of N,N-dimethyl-P-toluidine (Acros Organics, Lot: A0207283001) and 0.05% dimethylamino ethyl methacrylate (Aldrich, 234907, Lot: BCBF8391V) were added. The mixture was then stirred for 15 min (800 rpm, VWR Stirrer, USA). Finally, camphorquinone (Aldrich, 12, 489-3, Lot: 2338141) was added at the proportion of 0.1%. The mixture was stirred for another 15 min (VWR Stirrer, USA), and then the viscous liquid resin was prepared. Freeze dried chlorhexidine chloride compounds produced in Example 2 (precipitated with 0.33 M CaCl2) were weighed and incorporated within the resin at a loading level of 5% by weight. To explore the effect of different morphology on the release kinetics, chlorhexidine compounds with spherical, needle and flake morphology (from Example 1, FIG. 1, panels (b) and (c)) were incorporated into the resin. Incorporation of the chlorhexidine compounds within the resin was carried out by rotating the mixture contained in a 1 ml tube for 15 s in a Rotomix (120V/60 Hz, 2850 rotations/min) (ESPE RotoMix, USA). Chlorhexidine diacetate was also incorporated in the prepared resin in the same way, with loading rates of 5%, 10% and 15% (weight %). The filled resin was then placed into a Teflon mould (10 mm in diameter ×2 mm thick) and cured through a Mylar film with a curing light (Bluedent LED pen, Bulgaria) (430-490 nm, 600 mW/sq·cm) for 30 s. Then the discs were next weighed on a microbalance (Salter Ander-180A weighing scale, UK), and chlorhexidine content in each disc was calculated.
For the release study, all sample resin discs (HEMA-UDMA) containing chlorhexidine chloride compounds or chlorhexidine diacetate powder prepared in Example 5 were kept in cuvettes containing 3 ml deionized water, and kept at room temperature. And at each time point, solutions were collected for UV absorption tests (Lambda 35, Perkin Elmer, USA) and replaced with fresh deionized water.
For the chlorhexidine chloride compound doped discs (Example 5) chlorhexidine content was fixed at 5%, and ultrasound was exerted. Four groups (five discs in each group) were repetitively treated with ultrasound for 0 s, 10 s, 20 s, 30 s, accordingly, by contacting the ultrasound probe (Piezon Master 400, Swiss, 60 Hz, 45VA) on the disc surface at time points of 1 h, 3 h, 5 h, 15 h, 25 h, 40 h, 65 h, 95 h, 140 h, 205 h. After that, no ultrasound was carried out for all the groups, but release was carried on until the 650 hour time point. The UDMA-HEMA discs containing needle and flake chlorhexidine compounds and chlorhexidine diacetate (FIG. 1, panels (b) and (c), and FIG. 3, panel (g)) were also tested (UV absorption tests) at the same time points (same sample numbers) but without ultrasound treatment. For the chlorhexidine diacetate powder doped discs chlorhexidine content of 5%, 10% and 15% were also analysed, and no ultrasound treatment was carried out.

[2] = Chlorhexidine release from uncoated and polyelectrolyte-encapsulated particles (UV absorption); format: physicochemical; conditions: H2O, water stored and agitated
Description: The content of chlorhexidine in the compound, made from 0.33M CaCl2 and 15 mg/ml chlorhexidine diacetate, was determined by UV-Vis absorption (Lambda 35, Perkin Elmer, USA). […] The chlorohexidine proportion in the spheres (0.33M CaCl2 group) was calculated to be 90%-99.9% when they were co-precipitated from 15 mg/ml chlorhexidine diacetate solution. […] However, after encapsulation polyelectrolyte flakes could be seen on the surface, with the original structure covered (FIG. 11, panel (b)). In order to measure chlorhexidine release over 400 mins, samples were water stored and agitated (Vortex-Genie 2, Germany) for the whole time period. […] There was a linear relationship between chlorhexidine release and time (r2=0.99) FIG. 11, panel (d)).

L929 cells [3] = assay: Cell proliferation assay (total DNA content, Hoechst 33258); format: cell-based, mouse
Description: To determine any increase in cell numbers over time following chlorhexidine spheres treatment, a cell proliferation assay was performed by analysing the total DNA content using a fluorimetric plate reader based assay (Hoechst dye, R. Rago analytical biochemistry, 1990, 191: 31-34). Briefly, the 96 well plates were collected at 24 and 48 hour time points, washed twice with PBS and stored at −20° C. The cells were thawed to room temperature and 100 μl distilled water was added to each well, incubated for another hour and refrozen to suspend DNA. After 24 hrs, cells were thawed again and 100 μl of the fluorochrome Hoechst 33258 (Sigma-Aldrich, UK) at the concentration 20 μg/ml in THE buffer (2M NaCl) was added to each well. The intensity of the fluorescence was then read at A 350 nm excitation and A 460 nm emissions.

L929 cells [4] = assay: Cytotoxicity assay (MTT); conditions: for relative cellular viability: 0.001% chlorhexidine spheres
Description: 0.5% chlorhexidine spheres stock solution was used to prepare fresh successive dilutions in sterile deionised water to obtain the final concentrations ranging from 0.0005 to 0.25%. For controls (untreated cultures), sterile deionised water was used. 25 μl of each treatment were added into respective wells to achieve final concentrations ranging from 0.00005-0.025%.
L929 cells, a mouse fibroblast-like cell line (ECACC 85011425) were cultured in Dulbecco's Modified Eagle's Medium (DMEM; Lonza, UK) supplemented with 10% fetal bovine serum (FBS) with 100 IU/mL penicillin, 100 μg/mL streptomycin and 2 mmol/L glutamine (all from Invitrogen, UK) in an humidified incubator with 10% CO2 and 95% air at 37° C.
Cell metabolic activity was evaluated by measuring the mitochondrial activity using a method commonly known as a methyl-tetrazolium (MTT) assay. MTT assay was carried out according to the protocols outlined in ISO 1 0993-5:2009 (Biological evaluation of medical devices—Part 5: Tests for in vitro cytotoxicity).
Trypsinisation was performed by routine methods and cell suspension was counted using a haemocytometer and seeded in 96-well microtiter plates at a concentration of 10,000 cells per well. The cells were then left overnight in the incubator to adhere to the wells. Following overnight incubation, medium was removed and cells were washed twice with PBS. The cells were then treated with different concentrations of chlorhexidine spheres (0.00005-0.025%) for 24 and 48 hours. Following treatment, culture medium containing chlorhexidine spheres was removed and 50 μL of 5 mg/mL tetrazolium salt MTT (Sigma-Aldrich, Gillingham, UK) was added to each well and incubated in 37 C for 4 h. Formazan crystals generated by mitochondrial enzyme activity were dissolved by 100 μl of isopropanol and the intensity of purple coloured reaction product quantified by measuring the absorbance spectra at 570 nm. A cell viability level below 70% of control (no treatment) was regarded as the toxic concentration according to the ISO protocol.

[5] = Thermo-gravimetric analysis (TGA); format: physicochemical; conditions: TGA at 10° C./min in nitrogen, 50-800° C.
Description: The chlorhexidine chloride spheres (0.33M CaCl2 group) were analysed by Thermo-gravimetric analysis (TGA Q50, USA). Chlorhexidine diacetate crystals and CaCl2 powder (Sigma-Aldrich, C8106, Lot: SLBF7416V) were tested as comparisons. TGA was carried out at 10° C./min in a nitrogen atmosphere, over a temperature range of 50-800° C. The chlorhexidine proportion was further confirmed by the TGA result. […] The decomposition temperature of the chlorhexidine chloride spheres (210° C.) was higher than the chlorhexidine diacetate crystals (120° C.).

chlorhexidine release ([1]; 5% loading, control group without ultrasound (0 s), by 205 hours): 1.2%
chlorhexidine released by weight ([1]; 5% loading, deionized water, room temperature, no ultrasound, within 65 hours): 0.76%
chlorhexidine release ([1]; 5% loading, ultrasound 10 s at each time point, by 205 hours): 4.6%
chlorhexidine release ([1]; 5% loading, ultrasound 20 s at each time point, by 205 hours): 10.1%
chlorhexidine release ([1]; 5% loading, ultrasound 30 s at each time point, by 205 hours): 14.9%
chlorhexidine release ([1]; no ultrasound, after 650 hours): ~2.7%
time to dissolution [2]: ≤ 1 h
decomposition temperature [5]: 210 °C
Structure (SMILES): Cl.Cl.N=C(NCCCCCCNC(=N)NC(=N)Nc1ccc(Cl)cc1)NC(=N)Nc1ccc(Cl)cc1 [chlorhexidine spheres]
effect on L929 cell proliferation (in words) (L929 cells [3]; 0.00005% to 0.00025%, 24 and 48 hour treatment): induces proliferation
effect on L929 cell proliferation (in words) (L929 cells [3]; 0.0005%, 24 hour treatment): no proliferation
concentrations profoundly reducing cell proliferation (L929 cells [3]; L929 cells): > 0.0005%
concentrations significantly inhibiting proliferation (L929 cells [3]; L929 cells): ≥ 0.001%
cellular viability (L929 cells [4]; 0.00005% to 0.00025%, both 24 and 48 hours): approximately 90%
cellular viability (L929 cells [4]; 0.0005%, 24 hours): > 80%
cellular viability (L929 cells [4]; 0.0005%, 48 hours): below 70%
relative cellular viability (L929 cells [4]; 24 hours): approximately 50%
relative cellular viability (L929 cells [4]; 48 hours): 20%
concentrations demonstrating cytotoxicity (L929 cells [4]; L929 cells, viability below 70% of control regarded as toxic): above 0.0005%
